From ChEMBL document CHEMBL1129582, “Lipophilic, acid-stable, adenosine deaminase-activated anti-HIV prodrugs for central nervous system delivery. 3. 6-Amino prodrugs of 2'-beta-fluoro-2',3'-dideoxyinosine” (J Med Chem, 1996) come the findings set out here.

Each structure is given as a SMILES string.

The nature of series [1]: Anti-HIV activity by using phytohemagglutininin-stimulated peripheral blood mononuclear cell(PHA/PBM) test system. It is filed as functional. As to conditions: Homo sapiens.
Series [2] is described as follows: Partition coefficient (logP). The class given is physicochemical. The note with it: octanol/water.

Consider `OCC1CC(F)C(n2cnc3c(O)ncnc32)O1` (centres undefined), for which the IC50 in series [1] came to 6.3 µM. This counts as single-digit micromolar.
With `O=[N+]([O-])c1ncnc2c1ncn2C1OC(CO)CC1F` (centres undefined), the log partition coefficient (logP) in series [2] is -0.395. Further, the concentration for half-maximal inhibition (IC50) in series [1] amounted to 9.6 µM.
Turning to `NNc1ncnc2c1ncn2C1OC(CO)CC1F` (centres undefined), in series [1], the IC50 turned out to be 36.3 µM.
In series [2], `CN(C)c1ncnc2c1ncn2C1OC(CO)CC1F` (centres undefined) yielded a lipophilicity (logP) of 0.797. The molecule also yielded a concentration for half-maximal inhibition (IC50) in series [1] of 18 µM.
As for `CONc1ncnc2c1ncn2C1OC(CO)CC1F` (centres undefined), in series [2], the logP is -0.414. The same molecule showed an IC50 in series [1] of over 80 µM.
`OCC1CC(F)C(n2cnc3c(NO)ncnc32)O1` (centres undefined): the logP in series [2] was -0.983. Besides, in series [1], the IC50 turned out to be 6.8 µM.
The corresponding values for `OCC1CC(F)C(n2cnc3c(NOCc4ccccc4)ncnc32)O1` (centres undefined) are 1.25 and over 80 µM.
`CCNc1ncnc2c1ncn2C1OC(CO)CC1F` (centres undefined) gave a logP in series [2] of 0.779. In addition, the concentration for half-maximal inhibition (IC50) in series [1] worked out at 11.1 µM.
For the molecule `Nc1ncnc2c1ncn2[C@@H]1O[C@H](CO)C[C@@H]1F` [LODENOSINE], the IC50 in series [1] is 3.3 µM. That is a single-digit micromolar value.
On the same count and under the same terms, in the case of `CNc1ncnc2c1ncn2C1OC(CO)CC1F` (centres undefined) it was 13.1 µM.
For `OCC1CC(F)C(n2cnc3c(F)ncnc32)O1` (centres undefined), the half-maximal inhibitory concentration (IC50) in series [1] is over 5 µM.
Still for that read-out and setting: the same measure for `O=c1[nH]cnc2c1ncn2[C@H]1CC[C@@H](CO)O1` [DIDANOSINE]: 0.3 µM; for `OCC1CC(F)C(n2cnc3c(Cl)ncnc32)O1` (centres undefined): 5.9 µM.

As a reminder, the IC50 is the concentration at which inhibition is half-maximal. A high value points to weaker potency. A word on the logP: it is the decadic logarithm of the partition coefficient of the neutral form, usually between octanol and water. Higher therefore signals a more lipophilic compound.
